Results published in US20240287082A1, “NEW BENZODIAZEPINE DERIVATIVES AS GABA A GAMMA1 PAM” (Hoffmann-La Roche Inc., priority 2021, published 2024).
pKi: −log10 of the molar value. Where two headings read alike, the source gives them in different places.

Key:
[1] = target: human GABAA α5β2γ1 receptor (Homo sapiens (Human), UniProt P31644+Q8N1C3); assay: Radioligand binding assay, competition for [3H]RO7239181, γ1-containing GABAA subtype α5β2γ1
Procedure: The affinity of compounds at GABAA γ1 subunit-containing receptors was measured by competition for [^3H]RO7239181 (67.3 Ci/mmol; Roche) binding to membranes from HEK293F cells (ThermoFisher R^79007) expressing human (transiently transfected) receptors of composition α5β2γ1, α2β2γ1, α1β2γ1. For better protein expression of the α2 subunit-containing receptors, the 28 amino acid long signal peptide (Met1 to Ala28)of the human GABAA α2 subunit was substituted by the 31 amino acid long signal peptide (Met1 to Ser31) of human GABAA α5 subunit.
(§1) Harvested pellets from HEK293F cells expressing the different GABAA receptor subtypes were resuspended in Mannitol Buffer pH 7.2-7.4 (Mannitol 0.29M, Triethylamine 10 mM, Acetic acid 10 mM, EDTA 1 mM plus protease inhibitors (20 tablets Complete, Roche Diagnostics Cat. No. 05 056 489 001 per liter)), washed two times and then resuspended at 1:10 to 1:15 dilution in the same buffer. Cell disruption was performed by stirring the suspension in a Parr vessel #4637 at 435 psi for 15 minutes, and then the suspensions were centrifuged at 1000×g for 15 minutes at 4° C. (Beckman Avanti J-HC: rotor JS-4.2). The supernatant (S1) was transferred in a 21 Schott flask and the pellet (P1) was resuspended with Mannitol Buffer up to 175 ml. The resuspended pellet was transferred into a 250 ml Corning centrifugal beaker and centrifuged at 1500×g for 10 minutes at 4° C. (Beckman Avanti J-HC: rotor JS-4.2). The supernatant (S1) was then transferred in the 21 Schott flask and the pellet was discarded. The supernatants (S1) were centrifuged in 500 ml Beckman polypropylene centrifugal beaker at 15 000×g for 30 minutes at 4° C. (Beckman Avanti J-20 XP: rotor JLA-10.500). The pellet (P2) was resuspended with Mannitol Buffer 1:1 and frozen at −80° C. The supernatant (S2) was centrifuged in 100 ml Beckman polypropylene centrifugal tubes at 48000×g for 50 minutes at 4° C. (Beckman Avanti J-20 XP: rotor JA-18). The supernatant (S3) was discarded and the pellet (P3) was resuspended with 1:1 Mannitol Buffer. The P2 and P3 protein concentration was determined with the BIORAD Standard assay method with bovine serum albumin as standard and measured on the NANO-Drop 1000. The membrane suspension was aliquots (500 μl per tube) and stored at −80° C. until required.
(§2) Membrane homogenates were resuspended and polytronised (Polytron PT1200E Kinematica AG) in Potassium Phosphate 10 mM, KCl 100 mM binding buffer at pH 7.4 to a final assay concentration determined with a previous experiment.
Radioligand binding assays were carried out in a volume of 200 μL (96-well plates) which contained 100 μL of cell membranes, [3H]RO7239181 at a concentration of 1.5 nM (α5β2γ1) or 20-30 nM (α1β2γ1, α2β2γ1) and the test compound in the range of [0.3-1000]×10^−9 M. Nonspecific binding was defined by 10×10^−6 (α5β2γ1) and 30×10^−6 M RO7239181 and typically represented less than 5% (α5β2γ1) and less than 20% (α1β2γ1, α2β2γ1) of the total binding. Assays were incubated to equilibrium for 1 hour at 4° C. and then, membranes were filtered onto unifilter (96-well white microplate with bonded GF/C filters preincubated 20-50 minutes in 0.3% Polyethylenimine) with a Filtermate 196 harvester (Packard BioScience) and washed 4 times with cold Potassium Phosphate 10 mM pH 7.4, KCl 100 mM binding buffer. After anhydrousing, filter-retained radioactivity was detected by liquid scintillation counting. Ki values were calculated using Excel-Fit (Microsoft) and are the means of two determinations.

[2] = target: h-GABA-A α2β2γ1 (Homo sapiens (Human), UniProt P47869+Q8N1C3); assay: Two-electrode voltage clamp electrophysiology in Xenopus oocytes expressing GABAA receptors, modulation of GABA EC20 current; type: cell-based; conditions: for Efficacy (GABA) %: % modulation of GABA EC20 = 100*(Fold increase−1), compound at 30-fold Ki α2β2γ1; for Fold increase h-GABA-A α2β2γ1 oocyte @ 30-fold Ki: Xenopus oocytes, GABA EC20, test compound at approx. 30-fold its Ki α2β2γ1; for potentiation of the GABA-induced current: α2β2γ1 GABAA receptor subtype expressing oocytes, reference PAMs
Procedure: Xenopus laevis oocytes at maturation stages V-VI were used for the expression of cloned mRNA encoding GABAA receptor subunits. Oocytes ready for RNA micro-injection were bought from Ecocyte, Castrop-Rauxel, Germany and stored in modified Barth's medium (composition in mM: NaCl 88, KCl 1, NaHCO3 2.4, HEPES 10, MgSO4 0.82, CaNO3 0.33, CaCl2 0.33, pH=7.5) at 20° C. until the experiment.
Oocytes were plated in 96-well plates for microinjection using the Roboinject automated instrument (MultiChannelSystems, Reutlingen, Germany). Approximately 50 nL of an aqueous solution containing the RNA transcripts for the subunits of the desired GABAA receptor subtype was injected into each oocyte. […] Oocytes were kept in modified Barth's medium (composition in mM: NaCl 88, KCl 1, NaHCO3 […], HEPES 10, MgSO4 0.82, CaNO3 0.33, CaCl2 0.33, pH=7.5) at 20° C. until the experiment.
Electrophysiological experiments were performed using the Roboocyte instrument (MultiChannelSystems, Reutlingen, Germany) on days 3 to 5 after the micro-injection of mRNA. During the experiment the oocytes were constantly superfused by a solution containing (in mM) NaCl 90, KCl 1, HEPES 5, MgCl2 1, CaCl2 1 (pH 7.4). Oocytes were impaled by two glass microelectrodes (resistance: 0.5-0.8 MΩ) which were filled with a solution containing KCl 1M+K-acetate 1.5 M and voltage-clamped to −80 mV. The recordings were performed at room temperature using the Roboocyte two-electrode voltage clamp system (Multichannelsystem). After an initial equilibration period of 1.5 min GABA was added for 1.5 min at a concentration evoking approximately 20% of a maximal current response (EC20). After another rest interval of 2.5 min GABA was again added evoking a response of similar amplitude and shape. […] Current traces were recorded at a digitization rate of 10 Hz during and shortly before and after the GABA application.
Each compound and concentration was tested on at least 3 oocytes. Different oocytes were used for different compound concentrations.
For the analysis, the digitized current traces of the first and second GABA response were superimposed and, if necessary, rescaled to equal maximal amplitudes. The ratio between the two responses during the time interval of test compound application was calculated point by point. The extremum of the resulting “ratio trace” was taken as the efficacy (“Fold increase”) of the compound expressed as “% modulation of GABA EC20” (100*(Fold increase−1)).

[3] = target: human GABAA α1β3γ2 receptor (Homo sapiens (Human), UniProt P14867+P18507); assay: Radioligand binding assay, competition for [3H]Flumazenil, γ2-containing GABAA subtype α1β3γ2
Procedure: The affinity of compounds at GABAA γ2 subunit-containing receptors was measured by competition for [^3H]Flumazenil (81.1 Ci/mmol; Roche) binding to HEK293F cells expressing human (transiently transfected) receptors of composition α1β3γ2.
Harvested pellets from HEK293F cells expressing the different GABAA γ2 receptor subtypes were resuspended in Mannitol Buffer pH 7.2-7.4 and processed as described above for the cells expressing the GABAA γ1 subunit-containing receptors.
Assays were incubated to equilibrium for 1 hour at 4° C. and harvested onto GF/C uni-filters (Packard) by filtration using a Packard harvester and washing with ice-cold wash buffer (50 mM Tris; pH 7.5). After anhydrousing, filter-retained radioactivity was detected by liquid scintillation counting. Ki values were calculated using Excel-Fit (Microsoft) and are the means of two determinations.

[4] = target: human GABAA α2β2γ1 receptor (Homo sapiens (Human), UniProt P47869+Q8N1C3); assay: Radioligand binding assay, competition for [3H]RO7239181, γ1-containing GABAA subtype α2β2γ1; conditions: for γ2/γ1 Selectivity Ratio: Ki α1β3γ2 (nM)/Ki α2β2γ1 (nM); for LogSel: Log[Ki α1β3γ2 (nM)/Ki α2β2γ1 (nM)]
Procedure: The affinity of compounds at GABAA γ1 subunit-containing receptors was measured by competition for [^3H]RO7239181 (67.3 Ci/mmol; Roche) binding to membranes from HEK293F cells (ThermoFisher R^79007) expressing human (transiently transfected) receptors of composition α5β2γ1, α2β2γ1, α1β2γ1.
as §1, §2
Assays were incubated to equilibrium for 1 hour at 4° C. and then, membranes were filtered onto unifilter (96-well white microplate with bonded GF/C filters preincubated 20-50 minutes in 0.3% Polyethylenimine) with a Filtermate 196 harvester (Packard BioScience) and washed 4 times with cold Potassium Phosphate 10 mM pH 7.4, KCl 100 mM binding buffer. After anhydrousing, filter-retained radioactivity was detected by liquid scintillation counting. Ki values were calculated using Excel-Fit (Microsoft) and are the means of two determinations.

[5] = read-out: Ki h-GABAA α2β2γ1, Table 2, membranes of HEK293F cells, [3H]RO7239181

Structure (SMILES) | pKi [1] | Efficacy (GABA) % [2] | Fold increase h-GABA-A α2β2γ1 oocyte @ 30-fold Ki [2] | pKi [3] | pKi [4] | γ2/γ1 Selectivity Ratio [4] | LogSel [4] | pKi [4, 5] | γ2/γ1 Selectivity Ratio ([4]; Table 3) | LogSel ([4]; Table 3) | potentiation of the GABA-induced current [2]
O=c1nc2n(cc1Br)-c1ccc(Br)c(Cl)c1C(c1c(F)cccc1F)=NC2 [Example 15, 2,9-dibromo-8-chloro-7-(2,6-difluorophenyl)-5H-pyrimido[1,2-a][1,4]benzodiazepin-3-one] | 9.10 | 69% | 1.69 | 5.71 | 8.10 | 244.8 | 2.39 | 8.10 | – | – | –
O=c1ccn2c(n1)CN=C(c1c(F)cccc1F)c1c-2ccc(Br)c1Cl [Example 12, 9-bromo-8-chloro-7-(2,6-difluorophenyl)-5H-pyrimido[1,2-a][1,4]benzodiazepin-3-one] | 9.15 | 65% | 1.65 | 6.49 | 8.34 | 70.5 | 1.85 | 8.34 | – | – | –
C[C@@H]1N=C(c2c(F)cccc2F)c2c(ccc(Cl)c2Br)-n2cc(Br)c(=O)nc21 [Example 23, (5S)-2,8-dibromo-9-chloro-7-(2,6-difluorophenyl)-5-methyl-5H-pyrimido[1,2-a][1,4]benzodiazepin-3-one] | 8.17 | 107% | 2.07 | 5.52 | 7.13 | 40.5 | 1.61 | 7.13 | – | – | –
Cc1cn2c(nc1=O)[C@H](C)N=C(c1c(F)cccc1F)c1c-2ccc(Cl)c1Cl [Example 7, (5S)-8,9-dichloro-7-(2,6-difluorophenyl)-2,5-dimethyl-5H-pyrimido[1,2-a][1,4]benzodiazepin-3-one] | 8.85 | 53% | 1.53 | 6.16 | 7.95 | 61.2 | 1.79 | 7.95 | – | – | –
CCc1cn2c(nc1=O)[C@H](C)N=C(c1c(F)cccc1F)c1c-2ccc(Cl)c1Cl [Example 14, (5S)-8,9-dichloro-7-(2,6-difluorophenyl)-2-ethyl-5-methyl-5H-pyrimido[1,2-a][1,4]benzodiazepine-3-one] | 8.64 | 66% | 1.66 | 6.04 | 7.81 | 58.4 | 1.77 | 7.81 | – | – | –
C[C@@H]1N=C(c2c(F)cccc2F)c2c(ccc(Cl)c2Br)-n2ccc(=O)nc21 [Example 6, (5S)-8-bromo-9-chloro-7-(2,6-difluorophenyl)-5-methyl-5H-pyrimido[1,2-a][1,4]benzodiazepin-3-one] | 8.32 | 121% | 2.21 | 5.75 | 7.30 | 35.7 | 1.55 | 7.30 | – | – | –
O=c1ccn2c(n1)CN=C(c1ccccc1F)c1cc(Cl)ccc1-2 [RE-A, 9-chloro-7-(2-fluorophenyl)-5H-pyrimido[1,2-a][1,4]benzodiazepin-3-one, reference compound] | – | – | – | 7.56 | 6.91 | – | – | – | 0.23 | −0.64 | –
Cc1ncc2n1-c1ccc(Cl)cc1C(c1ccccc1F)=NC2 [Midazolam, reference compound] | – | – | – | – | – | – | – | – | – | −2.2 | ~60%
Cc1nnc2n1-c1ccc(Cl)cc1C(c1ccccc1)=NC2 [Alprazolam, reference compound] | – | – | – | – | – | – | – | – | – | −2.3 | –
Cc1nnc2n1-c1ccc(Cl)cc1C(c1ccccc1Cl)=NC2 [Triazolam, reference compound] | – | – | – | – | – | – | – | – | – | −1.5 | ~60%
CN1C(=O)CN=C(c2ccccc2F)c2cc([N+](=O)[O-])ccc21 [Flunitrazepam, reference compound] | – | – | – | – | – | – | – | – | – | – | ~60%
